Source: PubChem BioAssay (NCI)
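Protocol summary: plate cells (96-well), add compound at 5 concentrations, incubate 48 h, interpolate endpoints linearly. TGI marks complete inhibition of growth.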 Where a SMILES comes first, the peptide text is derived from it. Bridges are numbered along the chain shown (N, C = ends).

Experiments:
Test in all cases: NCI anticancer screen, dose series, 48 h
CCRF-CEM leukemia = system: CCRF-CEM leukemia
EKVX NSCLC = system: EKVX NSCLC
HCT-15 colon = system: HCT-15 colon
HL-60(TB) leukemia = system: HL-60(TB) leukemia
MDA-N = system: MDA-N
NCI-H522 lung = system: NCI-H522 lung
NCI/ADR-RES ovarian = system: NCI/ADR-RES ovarian
OVCAR-4 ovarian = system: OVCAR-4 ovarian
OVCAR-8 ovarian = system: OVCAR-8 ovarian
SF-539 CNS = system: SF-539 CNS

Row | SMILES | TGI (CCRF-CEM leukemia) [µM] | TGI (EKVX NSCLC) [µM] | TGI (HCT-15 colon) [µM] | TGI (HL-60(TB) leukemia) [µM] | TGI (MDA-N) [µM] | TGI (NCI-H522 lung) [µM] | TGI (NCI/ADR-RES ovarian) [µM] | TGI (OVCAR-4 ovarian) [µM] | TGI (OVCAR-8 ovarian) [µM] | TGI (SF-539 CNS) [µM]
1 | COC1(C)CCC(OS(C)(=O)=O)CO1 (stereo not given) | > 100 | > 100 | > 100 | > 100 | > 100 | > 100 | > 100 | > 100 | > 100 | > 100
2 | CC(Cl)(CCC(Cl)C(C)(C)Cl)C(=O)CBr (stereo not given) | > 21.5 | 30.9 | 21.7 | > 100 | 21.3 | 3.94 | 74.2 | 7.46 | 23.7 | 29.8
3 | COC(=O)CCCc1nc2ccccc2nc1N=Nc1ccccc1 | 72.7 | > 100 | > 100 | 20.1 | > 100 | 68.5 | 57.1 | > 100 | 58.5 | > 100
4 | COC(=O)C1CCC(=O)NCCCCC(NC(=O)C(N)CC(=O)O)C(=O)N1 (stereo not drawn) (H-Asp-Lys-Glu-OMe; lactam 2-3; configuration not given here) | > 100 | > 100 | > 100 | > 100 | > 100 | > 100 | > 100 | > 100 | > 100 | > 100
5 | C=CC(C)(C)/C(=C\CO[Si](C(C)C)(C(C)C)C(C)C)C(=O)N(C)c1ccccc1I | 22.6 | 32.1 | 30.8 | 11.4 | 33.6 | 19 | 37.6 | 68.1 | 28 | 33
6 | COC(=O)[C@@H]1C=CCN1S(=O)(=O)c1ccc(C)cc1 | 72.1 | > 100 | > 100 | 53.5 | > 100 | > 100 | > 100 | > 100 | > 100 | > 100
7 | COc1ccc(Cn2c(=O)c(OS(=O)(=O)C(F)(F)F)c(C)c3cc4ccccc4cc32)cc1 | > 100 | > 100 | > 100 | > 100 | > 100 | > 100 | > 100 | > 100 | > 100 | > 100
8 | O=S1(=O)N=C(SCc2c[nH]c3ccccc23)N(c2ccccc2)c2ccncc21 | > 100 | > 100 | > 100 | > 100 | > 100 | > 100 | > 100 | > 100 | > 100 | 80.5
